Measured values: patent publication US8822491B2, “Methods and compositions for treating β-thalassemia and sickle cell disease” (Academia Sinica, priority 2011, dated 2014)
Where two headings read alike, the source gives them in different places.

Legend:
Type in all cases: cell-based
[1] = tested on: γ globin mRNA; assay: Real time RT-PCR of γ globin mRNA in primary human erythroid cultures; set-up: expression level of the fetal γ globin gene: dose or concentration left out as unconfirmed
Protocol: (§1) Mouse erythroleukemic (MEL) cells, an adult erythroid cell line (Friend, et al. (1971) Proc Natl Acad Sci USA 68:378-82), were maintained in DMEM medium (Gibco) supplemented with 10% FBS and 1% penicillin-streptomycin, in 37° C. chamber under a 5% CO2 humidified atmosphere. For establishing stable cell lines, transfection of the reporter pmLAR-Gp-DsRed-Bp-d2EGFP into MEL cells was carried out using the Neon™ transfection system (Invitrogen). 2×10^6 MEL cells were transfected with 5 μg of the plasmid. Following microporation, the MEL cells were seeded in 10 ml antibiotics-free DMEM for 24 hrs and selected with […] of neomycin for one month. The primary human erythroid culture was initiated by maintaining the purified mononuclear cells in SFEM medium with 1× cc100 cytokine mix (StemSpan) for 7 days. The cells were then kept in the differentiation medium (SFEM with 20 ng/ml SCF, 1 U/ml EPO, 5 ng/ml IL-3, 2 micromolar dexamethasone) for another 7 days at a density of 0.1−1×10^6 cells/ml. The cells were treated with chemical compound at day 7 post-differentiation and then harvested for further analysis after 3 days of compound treatment.
(§2) Total RNAs were isolated with use of the RNAspin Mini kit (GE Healthcare). cDNA synthesis was carried out using SuperScript II reverse transcriptase (Invitrogen). Quantitative RT-PCR was performed using the SYBR Green PCR Master Mix (Applied Biosystems) and ABI 7500 real-time System. All data were analyzed after normalization to the expression level of the mouse or human […] gene.

[2] = tested on: β globin mRNA; assay: Real time RT-PCR of β globin mRNA in primary human erythroid cultures; set-up: dose or concentration left out as unconfirmed; conditions: STO-609, 3 days, FIG. 7A
Protocol: as §1, with “The cells were treated with chemical compound at day 7 post-differentiation and then harvested for further analysis after 3 days of compound treatment.” left out
as §2

[3] = tested on: NF-E4; assay: Real-time RT-PCR of NF-E4 expression in primary human erythroid cultures; conditions: different concentrations of STO-609, 3 days, FIG. 7B
Protocol: (§3) Primary human erythroid cultures were treated with 0.25 μM of compound A, and the relative expression levels of different transcription factors were then determined by real-time RT-PCR analysis. The white bars indicate the expression levels of mock control set as 1. The black bars are the relative expression levels in compound A-treated cells.
(§4) Mouse erythroleukemic (MEL) cells, an adult erythroid cell line (Friend, et al. (1971) Proc Natl Acad Sci USA 68:378-82), were maintained in DMEM medium (Gibco) supplemented with 10% FBS and 1% penicillin-streptomycin, in 37° C. chamber under a 5% CO2 humidified atmosphere. For establishing stable cell lines, transfection of the reporter pmLAR-Gp-DsRed-Bp-d2EGFP into MEL cells was carried out using the Neon™ transfection system (Invitrogen). 2×10^6 MEL cells were transfected with 5 μg of the plasmid. Following microporation, the MEL cells were seeded in 10 ml antibiotics-free DMEM for 24 hrs and selected with […] of neomycin for one month. […]
as §2

[4] = tested on: Bcl11a; assay: Real-time RT-PCR of Bcl11a expression in primary human erythroid cultures; conditions: different concentrations of STO-609, 3 days, FIG. 7C
Protocol: as §3, §4, §2

[5] = tested on: c-Myb; assay: Real-time RT-PCR of c-Myb expression in primary human erythroid cultures; conditions: different concentrations of STO-609, 3 days, FIG. 7D
Protocol: Dosage effects of STO-609 on the proliferation and γ/β globin gene expression of differentiated human erythroid progenitor cells were analyzed as described for compounds A-F. The differentiated primary cultured erythroid cells were treated with different concentrations of STO-609 for 3 days. (A) Relative induction of β (white bars) and γ globin mRNAs (black bars) was determined by real time RT-PCR analysis. The proliferation curve of the cells is shown with the mock control being 100%. (B) Relative expression levels of NF-E4 were determined by real time RT-PCR analysis and shown by the grey bars. (C) Relative expression levels of Bcl11a in response to treatments with different concentrations of STO-609 are shown (white bars). (D) Relative expression levels of c-Myb in cells treated with different concentrations of STO-609 are shown (black bars). The mock control is set as 1. […]
as §2

[6] = tested on: mouse embryonic εy globin mRNA; assay: Real-time RT-PCR of endogenous embryonic globin mRNA in MEL cells
Protocol: 5×10^4 MEL cells carrying the dual fluorescence reporter were seeded on optical Packard 96-well view plates, treated with […] of the individual compound for 3 days, and primary screened for their DsRed intensity with use of the Wallac Victor3 1420 multilabel counter (Ex: 550/9; Em: 620). The secondary screenings were performed using a digital image detector, Cellomics Arrayscan 3.0 system, which doubly confirmed the intracellular DsRed fluorescence induced by the compound treatment. The endogenous globin gene expression patterns in the positive MEL cells from the primary and secondary screens as well as in compound-treated primary human erythroid cultures were subsequently identified by real time RT-PCR analysis.
as §2

[7] = tested on: human erythroid progenitor cells; assay: Cell proliferation (alamar Blue) of differentiated primary human erythroid cells; conditions: for IC50: Erythroid progenitor cell, 72 h, read-out: IC50 (concentration at which the cell proliferation rate is reduced by 50%)
Protocol: FIG. 3 illustrates induction of the endogenous globin genes in the primary culture of human erythroid progenitor cells by compound A. (A) Dosage effect of compound A in the differentiated human erythroid progenitor cells. The differentiated primary cultured cells were treated with different concentrations of compound A for 3 days. Total mRNA was extracted, and relative induction of the β and γ globin mRNAs was determined by real time RT-PCR analysis. The cell proliferation abilities were determined with use of alamar Blue reagent (mock control as 100%). The white bars indicated the relative expression levels of β-globin. The gray bars represent the relative levels of γ-globin mRNA. (B) Comparison of γ and β globin gene expression patterns in primary erythroid cultured cells treated with different fetal globin inducing agents. […] The total RNAs were then isolated for real time RT-PCR analysis. Relative induction of the β globin gene (white bars) and the γ globin gene (grey bars) was then determined.
IC50 values are the concentrations of the individual compounds at which the cell proliferation rates are reduced by 50%.
as §1

[8] = different concentrations of compound A, 3 days, FIG. 3A
[9] = differentiated human primary erythroid cells, 3 days

CC(=O)O.O=C(O)c1ccc2c3c1cccc3c(=O)n1c3ccccc3nc21 [STO-609, 7-oxo-7H-benzimidazo[2,1-a]benz[de]isoquinoline-3-carboxylic acid acetate]
concentration at which the fetal γ globin gene expression was elevated ([1]; STO-609, 3 days, FIG. 7A): ≥ 50 µM
expression level of the fetal γ globin gene ([1]; STO-609, 3 days, FIG. 7A): elevated
ability to induce fetal γ globin expression ([1]; survey of compounds with the benzo[de]benzo[4,5]imidazo[2,1-a]isoquinolin-7-one core): displays the fetal γ globin-inducting capability
expression level of the adult β globin gene (elevated?) [2]: but not the adult β globin
transcription of the γ globin gene activator NF-E4 [3]: up-regulation
expression level of the γ globin gene repressor Bcl11a [4]: down-regulated
transcript of c-Myb [5]: significantly reduced

O=C(O)c1ccc(C(=O)O)c2c(-c3ccc4c(=O)n5c6ccccc6nc5c5ccc(C(=O)O)c3c45)ccc(C(=O)O)c12 [compound A, 8-(3-Carboxy-7-oxo-7H-benzo[de]benzo[4,5]imidazo[2,1-a]isoquinolin-4-yl)-naphthalene-1,4,5-tricarboxylic acid]
induction of endogenous mouse embryonic εy globin mRNA expression level [6]: more than 10 fold
γ-globin induction fold compared to TSA, hydroxyurea and sodium butyrate ([1]; compound A […] vs TSA 0.33 μM, HU 100 μM, NaB 0.5 mM, 3 days, FIG. 3B): highest γ-globin induction fold
relative expression level of the γ globin gene as a function of concentration [1, 8]: significantly increased
IC50 [7, 9]: 0.2 µM
proliferation rates of the cells [7, 8]: in reverse relationship with the concentration of compound A

O=c1c2cccc3cccc(c32)c2nc3ccccc3n12 [compound B, Benzo[de]benzo[4,5]imidazo[2,1-a]isoquinolin-7-one]
IC50 [7, 9]: 21.8 µM

O=c1c2cccc3c(Cl)ccc(c32)c2nc3ccccc3n12 [compound C, 3-Chloro-benzo[de]benzo[4,5]imidazo[2,1-a]isoquinolin-7-one]
IC50 [7, 9]: 75.2 µM

O=C(O)c1ccc2c(=O)n3c4ccccc4nc3c3ccc(C(=O)O)c1c23 [compound F, 7-Oxo-7H-benzo[de]benzo[4,5]imidazo[2,1-a]isoquinoline-3,4-dicarboxylic acid]
IC50 [7, 9]: 103 µM

NC(=O)NO [hydroxyurea]
IC50 [7, 9]: 146 µM

CCCC(=O)[O-].[Na+] [sodium butyrate]
IC50 ([7]; Homo sapiens): 222 µM
